Measurements reported in patent US20240025862A1, “SUBSTITUTED N-PHENYLURACILS AND SALTS THEREOF, AND USE THEREOF AS HERBICIDAL ACTIVE SUBSTANCES” (Bayer Aktiengesellschaft, priority 2020, published 2024).

Key:
Type in all cases: in vivo
[1] = test system: Echinochloa crus-galli (ECHCG); assay: Post-emergence herbicidal action, greenhouse pot test (also comparative test C)
Summary of the method: (§1)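 Greenhouse pot plants in sandy loam were sprayed post-emergence at the one-leaf stage (2–3 weeks after sowing) with WP or EC formulations plus 0.5% additive at 600 l/ha water. Activity was rated visually after about 3 weeks versus untreated controls (100% = dead, 0% = like control); rates were 20 g/ha or less, and 5 g/ha or less in the comparative test.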

[2] = test system: Alopecurus myosuroides (ALOMY); assay: as above; settings: 20 g/ha, rated visually after about 3 weeks vs untreated controls, 100% = plants have died
Summary of the method: as §1

[3] = test system: Matricaria inodora (MATIN); assay: as above
Summary of the method: as §1

Setaria viridis (SETVI) = assay: as above; settings: for Post-emergence action against SETVI: 20 g/ha
Summary of the method: as §1

Brassica napus (BRSNW) = assay: Post-emergence crop plant compatibility, greenhouse pot test; settings: for Post-emergence action against BRSNW (crop plant compatibility): 1.25 g/ha, vs untreated controls
Summary of the method: (§2)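 Percent crop injury was judged by eye roughly three weeks after treatment, relative to untreated plants, where 100% meant death. Application was a post-emergence spray at the one-leaf stage, 600 l/ha water volume with 0.5% additive; letters a, b, c denote differing dose rates.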

[4] = test system: Triticum aestivum (TRZAS); assay: as above; settings: vs untreated controls
Summary of the method: as §2

Glycine max (GLXMA) = assay: as above
Summary of the method: as §2

Oryza sativa (ORYSA) = assay: Post-emergence crop plant compatibility, greenhouse pot test (also comparative test C); settings: for Post-emergence action against ORYSA (crop plant compatibility): vs untreated controls
Summary of the method: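 Rice and other crops sprayed post-emergence at one-leaf stage (2–3 weeks after sowing) with WP or EC formulations plus 0.5% additive at 600 l/ha water. Visual rating about 3 weeks later versus untreated controls (100% = dead, 0% = like control); suffixes a–c denote different doses.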

[5] = test system: Polygonum convolvulus (POLCO); assay: Post-emergence herbicidal action, greenhouse pot test
Summary of the method: (§3)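 Greenhouse-grown weeds in sandy loam were sprayed post-emergence at the one-leaf stage, 2–3 weeks after sowing. Compounds were formulated as WP or EC in water with 0.5% additive at 600 l/ha, at rates of 20 g/ha or less. Visual rating after about 3 weeks used a scale from 0% (like untreated control) to 100% (plants dead).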

Stellaria media (STEME) = assay: as above
Summary of the method: as §3

[6] = test system: Abutilon theophrasti (ABUTH); assay: as above; settings: rated visually after about 3 weeks vs untreated controls, 100% = plants have died
Summary of the method: as §3

[7] = test system: Pharbitis purpurea (PHBPU); assay: as above
Summary of the method: as §3

Veronica persica (VERPE) = assay: as above
Summary of the method: as §3

Viola tricolor (VIOTR) = assay: as above
Summary of the method: as §3

[8] = test system: Amaranthus retroflexus (AMARE); assay: as above; settings: rated visually after about 3 weeks vs untreated controls, 100% = plants have died
Summary of the method: as §3

## CC(Oc1ccccc1Sc1cc(-n2c(=O)cc(C(F)(F)F)n(C)c2=O)c(F)cc1Cl)C(=O)OCC1CCOC1 (mixture of isomers) [I.2-72]
[1]; dosage 5 g/ha
  Post-emergence action against ECHCG in %: 80%
[1]; dosage 20 g/ha
  Post-emergence action against ECHCG in %: 80%
[2]
  Post-emergence action at 20 g/ha against ALOMY in %: 90%
[3]; dosage 20 g/ha
  Post-emergence action against MATIN in %: 100%
Setaria viridis (SETVI)
  Post-emergence action against SETVI: 100%
Setaria viridis (SETVI); dosage 1.25 g/ha
  Post-emergence action against SETVI in %: 90%
Setaria viridis (SETVI); dosage 5 g/ha
  Post-emergence action against SETVI in %: 100%
Brassica napus (BRSNW)
  Post-emergence action against BRSNW (crop plant compatibility): 10%
[4]; 1.25 g/ha
  Post-emergence action against TRZAS (crop plant compatibility): 20%
[4]; 5 g/ha
  Post-emergence action against TRZAS (crop plant compatibility): 20%
Glycine max (GLXMA); 1.25 g/ha
  Post-emergence action against GLXMA in %: 0%
Glycine max (GLXMA); 5 g/ha
  Post-emergence action against GLXMA in %: 10%
Oryza sativa (ORYSA); 1.25 g/ha
  Post-emergence action against ORYSA (crop plant compatibility): 0%
Oryza sativa (ORYSA); 5 g/ha
  Post-emergence action against ORYSA (crop plant compatibility): 20%
[5]; dosage 5 g/ha
  Post-emergence action against POLCO in %: 80%
[5]; dosage 20 g/ha
  Post-emergence action against POLCO in %: 100%
Stellaria media (STEME); 5 g/ha
  Post-emergence action against STEME: 100%
Stellaria media (STEME); 20 g/ha
  Post-emergence action against STEME: 100%
[6]
  Post-emergence action at 5 g/ha against ABUTH in %: 100%
  Post-emergence action at 20 g/ha against ABUTH in %: 100%
[7]; dosage 1.25 g/ha
  Post-emergence action against PHBPU in %: 100%
[7]; dosage 5 g/ha
  Post-emergence action against PHBPU in %: 100%
[7]; dosage 20 g/ha
  Post-emergence action against PHBPU in %: 100%
Veronica persica (VERPE); 1.25 g/ha
  Post-emergence action against VERPE: 100%
Veronica persica (VERPE); 5 g/ha
  Post-emergence action against VERPE: 100%
Veronica persica (VERPE); 20 g/ha
  Post-emergence action against VERPE: 100%
Viola tricolor (VIOTR); 1.25 g/ha
  Post-emergence action against VIOTR: 100%
Viola tricolor (VIOTR); 5 g/ha
  Post-emergence action against VIOTR: 100%
Viola tricolor (VIOTR); 20 g/ha
  Post-emergence action against VIOTR: 100%
[8]
  Post-emergence action at 1.25 g/ha against AMARE in %: 90%
  Post-emergence action at 5 g/ha against AMARE in %: 100%
  Post-emergence action at 20 g/ha against AMARE in %: 100%

## CCOCCOC(=O)C(C)Oc1ccccc1Sc1cc(-n2c(=O)cc(C(F)(F)F)n(C)c2=O)c(F)cc1Cl (racemic) [I.2-2]
[1]; dosage 20 g/ha
  Post-emergence action against ECHCG in %: 90%
[2]
  Post-emergence action at 20 g/ha against ALOMY in %: 80%
[3]; dosage 5 g/ha
  Post-emergence action against MATIN in %: 80%
[3]; dosage 20 g/ha
  Post-emergence action against MATIN in %: 100%
Setaria viridis (SETVI)
  Post-emergence action against SETVI: 100%
Setaria viridis (SETVI); dosage 1.25 g/ha
  Post-emergence action against SETVI in %: 100%
Setaria viridis (SETVI); dosage 5 g/ha
  Post-emergence action against SETVI in %: 100%
Brassica napus (BRSNW)
  Post-emergence action against BRSNW (crop plant compatibility): 10%
[4]; 1.25 g/ha
  Post-emergence action against TRZAS (crop plant compatibility): 20%
[4]; 5 g/ha
  Post-emergence action against TRZAS (crop plant compatibility): 20%
Glycine max (GLXMA); 1.25 g/ha
  Post-emergence action against GLXMA in %: 0%
Glycine max (GLXMA); 5 g/ha
  Post-emergence action against GLXMA in %: 0%
Glycine max (GLXMA); 20 g/ha
  Post-emergence action against GLXMA in %: 10%
Oryza sativa (ORYSA); 1.25 g/ha
  Post-emergence action against ORYSA (crop plant compatibility): 10%
Oryza sativa (ORYSA); 5 g/ha
  Post-emergence action against ORYSA (crop plant compatibility): 10%
Oryza sativa (ORYSA); 20 g/ha, crop plant compatibility
  Post-emergence action against ORYSA in %: 20%
[5]; dosage 5 g/ha
  Post-emergence action against POLCO in %: 100%
[5]; dosage 20 g/ha
  Post-emergence action against POLCO in %: 100%
Stellaria media (STEME); 5 g/ha
  Post-emergence action against STEME: 100%
Stellaria media (STEME); 20 g/ha
  Post-emergence action against STEME: 100%
[6]
  Post-emergence action at 1.25 g/ha against ABUTH in %: 80%
  Post-emergence action at 5 g/ha against ABUTH in %: 100%
  Post-emergence action at 20 g/ha against ABUTH in %: 100%
[7]; dosage 1.25 g/ha
  Post-emergence action against PHBPU in %: 100%
[7]; dosage 5 g/ha
  Post-emergence action against PHBPU in %: 100%
[7]; dosage 20 g/ha
  Post-emergence action against PHBPU in %: 100%
Veronica persica (VERPE); 1.25 g/ha
  Post-emergence action against VERPE: 100%
Veronica persica (VERPE); 5 g/ha
  Post-emergence action against VERPE: 100%
Veronica persica (VERPE); 20 g/ha
  Post-emergence action against VERPE: 100%
Viola tricolor (VIOTR); 1.25 g/ha
  Post-emergence action against VIOTR: 100%
Viola tricolor (VIOTR); 5 g/ha
  Post-emergence action against VIOTR: 100%
Viola tricolor (VIOTR); 20 g/ha
  Post-emergence action against VIOTR: 100%
[8]
  Post-emergence action at 1.25 g/ha against AMARE in %: 100%
  Post-emergence action at 5 g/ha against AMARE in %: 100%
  Post-emergence action at 20 g/ha against AMARE in %: 100%

## COCCOCCOC(=O)C(C)Oc1ccccc1Sc1cc(-n2c(=O)cc(C(F)(F)F)n(C)c2=O)c(F)cc1Cl (racemic) [I.2-23]
[1]; dosage 5 g/ha
  Post-emergence action against ECHCG in %: 100%
[1]; dosage 20 g/ha
  Post-emergence action against ECHCG in %: 100%
[2]
  Post-emergence action at 20 g/ha against ALOMY in %: 80%
[3]; dosage 5 g/ha
  Post-emergence action against MATIN in %: 80%
[3]; dosage 20 g/ha
  Post-emergence action against MATIN in %: 100%
Setaria viridis (SETVI)
  Post-emergence action against SETVI: 100%
Setaria viridis (SETVI); dosage 5 g/ha
  Post-emergence action against SETVI in %: 100%
Brassica napus (BRSNW)
  Post-emergence action against BRSNW (crop plant compatibility): 20%
Brassica napus (BRSNW); 5 g/ha, crop plant compatibility, observed effects on crop plant in comparison to untreated controls
  Post-emergence action at 5 g/ha against BRSNW in %: 20%
[4]; 1.25 g/ha
  Post-emergence action against TRZAS (crop plant compatibility): 20%
Glycine max (GLXMA); 1.25 g/ha
  Post-emergence action against GLXMA in %: 0%
Glycine max (GLXMA); 5 g/ha
  Post-emergence action against GLXMA in %: 10%
Glycine max (GLXMA); 20 g/ha
  Post-emergence action against GLXMA in %: 20%
Oryza sativa (ORYSA); 1.25 g/ha
  Post-emergence action against ORYSA (crop plant compatibility): 10%
Oryza sativa (ORYSA); 5 g/ha
  Post-emergence action against ORYSA (crop plant compatibility): 10%
[5]; dosage 5 g/ha
  Post-emergence action against POLCO in %: 100%
[5]; dosage 20 g/ha
  Post-emergence action against POLCO in %: 100%
Stellaria media (STEME); 5 g/ha
  Post-emergence action against STEME: 100%
Stellaria media (STEME); 20 g/ha
  Post-emergence action against STEME: 100%
[6]
  Post-emergence action at 1.25 g/ha against ABUTH in %: 100%
  Post-emergence action at 5 g/ha against ABUTH in %: 100%
  Post-emergence action at 20 g/ha against ABUTH in %: 100%
[7]; dosage 1.25 g/ha
  Post-emergence action against PHBPU in %: 100%
[7]; dosage 5 g/ha
  Post-emergence action against PHBPU in %: 100%
[7]; dosage 20 g/ha
  Post-emergence action against PHBPU in %: 100%
Veronica persica (VERPE); 1.25 g/ha
  Post-emergence action against VERPE: 80%
Veronica persica (VERPE); 5 g/ha
  Post-emergence action against VERPE: 100%
Veronica persica (VERPE); 20 g/ha
  Post-emergence action against VERPE: 100%
Viola tricolor (VIOTR); 5 g/ha
  Post-emergence action against VIOTR: 100%
Viola tricolor (VIOTR); 20 g/ha
  Post-emergence action against VIOTR: 100%
[8]
  Post-emergence action at 1.25 g/ha against AMARE in %: 80%
  Post-emergence action at 5 g/ha against AMARE in %: 100%
  Post-emergence action at 20 g/ha against AMARE in %: 100%
